{
  "source": "ChEMBL document CHEMBL1201862",
  "about": "“PubChem BioAssay data set” (2004)",
  "assay_in_all_cases": "DTP human tumour cell line panel, 48 h",
  "key": {"UACC-257": {"test_system": "UACC-257"}, "NCI-H522": {"test_system": "NCI-H522"}, "OVCAR-5": {"test_system": "OVCAR-5"}, "Malme-3M": {"test_system": "Malme-3M"}, "SR": {"test_system": "SR"}, "HT-29": {"test_system": "HT-29"}, "LOX IMVI": {"test_system": "LOX IMVI"}, "CAKI-1": {"test_system": "CAKI-1"}, "SK-MEL-5": {"test_system": "SK-MEL-5"}, "HCT-15": {"test_system": "HCT-15"}, "K562": {"test_system": "K562"}, "OVCAR-3": {"test_system": "OVCAR-3"}, "HCT-116": {"test_system": "HCT-116"}, "SK-OV-3": {"test_system": "SK-OV-3"}, "DMS-114": {"test_system": "DMS-114"}, "NCI-H226": {"test_system": "NCI-H226"}, "HOP-92": {"test_system": "HOP-92"}, "KM12": {"test_system": "KM12"}, "SF-539": {"test_system": "SF-539"}, "SK-MEL-2": {"test_system": "SK-MEL-2"}},
  "note": "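Growth conditions: 96-well plates. Treatment: test compound, 48 hours, 5 concentrations. Analysis: linear interpolation between bracketing concentrations; unreached endpoints set to highest concentration. GI50: concentration for 50% inhibition of growth.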 Active and inactive are the calls of the source. Rule as the data show it: active = GI50 up to about 1.1 µM and inactive = higher.",
  "data": [
    {"smiles": "Nc1ccc(OCC(O)N2C(=O)c3ccccc3C2=O)cc1", "note": "(configuration not stated)", "values": [
      {"measurement": "GI50", "setting": "UACC-257", "value": "> 100 µM (inactive)"},
      {"measurement": "GI50", "setting": "NCI-H522", "value": "> 100 µM (inactive)"},
      {"measurement": "GI50", "setting": "OVCAR-5", "value": "> 100 µM (inactive)"},
      {"measurement": "GI50", "setting": "Malme-3M", "value": "> 100 µM (inactive)"},
      {"measurement": "GI50", "setting": "SR", "value": "> 10 µM (inactive)"},
      {"measurement": "GI50", "setting": "HT-29", "value": "> 100 µM (inactive)"},
      {"measurement": "GI50", "setting": "LOX IMVI", "value": "> 100 µM (inactive)"},
      {"measurement": "GI50", "setting": "CAKI-1", "value": "< 0.01 µM (active)"},
      {"measurement": "GI50", "setting": "SK-MEL-5", "value": "> 100 µM (inactive)"},
      {"measurement": "GI50", "setting": "HCT-15", "value": "> 100", "unit": "µM"},
      {"measurement": "GI50", "setting": "K562", "value": "> 100 µM (inactive)"},
      {"measurement": "GI50", "setting": "OVCAR-3", "value": "> 100 µM (inactive)"},
      {"measurement": "GI50", "setting": "HCT-116", "value": "> 100 µM (inactive)"},
      {"measurement": "GI50", "setting": "SK-OV-3", "value": "> 100 µM (inactive)"}
    ]},
    {"smiles": "COC(=O)C1=C(C)N2CCCOC2(C)C(C(=O)OC)C1c1cccc(Cl)c1", "note": "(configuration not stated)", "values": [
      {"measurement": "GI50", "setting": "UACC-257", "value": "19.7 µM (inactive)"},
      {"measurement": "GI50", "setting": "DMS-114", "value": "19.1 µM (inactive)"},
      {"measurement": "GI50", "setting": "NCI-H226", "value": "17.8 µM (inactive)"},
      {"measurement": "GI50", "setting": "SR", "value": "> 10 µM (inactive)"},
      {"measurement": "GI50", "setting": "HT-29", "value": "22.2 µM (inactive)"},
      {"measurement": "GI50", "setting": "CAKI-1", "value": "17.5 µM (inactive)"},
      {"measurement": "GI50", "setting": "SK-MEL-5", "value": "> 100 µM (inactive)"},
      {"measurement": "GI50", "setting": "HOP-92", "value": "19.1 µM (inactive)"},
      {"measurement": "GI50", "setting": "KM12", "value": "17.9 µM (inactive)"},
      {"measurement": "GI50", "setting": "SF-539", "value": "27.8 µM (inactive)"},
      {"measurement": "GI50", "setting": "K562", "value": "27.2 µM (inactive)"},
      {"measurement": "GI50", "setting": "OVCAR-3", "value": "22.2 µM (inactive)"},
      {"measurement": "GI50", "setting": "HCT-116", "value": "25 µM (inactive)"},
      {"measurement": "GI50", "setting": "SK-MEL-2", "value": "18.1 µM (inactive)"}
    ]},
    {"smiles": "CCCCC#CS(=O)(=O)C(F)(F)F", "values": [
      {"measurement": "GI50", "setting": "UACC-257", "value": "12.9 µM (inactive)"},
      {"measurement": "GI50", "setting": "NCI-H522", "value": "36.1 µM (inactive)"},
      {"measurement": "GI50", "setting": "OVCAR-5", "value": "> 100 µM (inactive)"},
      {"measurement": "GI50", "setting": "DMS-114", "value": "37.2 µM (inactive)"},
      {"measurement": "GI50", "setting": "Malme-3M", "value": "> 100 µM (inactive)"},
      {"measurement": "GI50", "setting": "NCI-H226", "value": "> 100 µM (inactive)"},
      {"measurement": "GI50", "setting": "HT-29", "value": "22.4 µM (inactive)"},
      {"measurement": "GI50", "setting": "LOX IMVI", "value": "60.7 µM (inactive)"},
      {"measurement": "GI50", "setting": "CAKI-1", "value": "0.605 µM (active)"},
      {"measurement": "GI50", "setting": "SK-MEL-5", "value": "52.7 µM (inactive)"},
      {"measurement": "GI50", "setting": "HOP-92", "value": "34.1 µM (inactive)"},
      {"measurement": "GI50", "setting": "KM12", "value": "> 83.9 µM (inactive)"},
      {"measurement": "GI50", "setting": "SF-539", "value": "> 100 µM (inactive)"},
      {"measurement": "GI50", "setting": "HCT-15", "value": 90.4, "unit": "µM"},
      {"measurement": "GI50", "setting": "K562", "value": "45.4 µM (inactive)"},
      {"measurement": "GI50", "setting": "OVCAR-3", "value": "> 56.4 µM (inactive)"},
      {"measurement": "GI50", "setting": "HCT-116", "value": "36 µM (inactive)"},
      {"measurement": "GI50", "setting": "SK-MEL-2", "value": "> 36.8 µM (inactive)"},
      {"measurement": "GI50", "setting": "SK-OV-3", "value": "> 94.2 µM (inactive)"}
    ]}
  ]
}
